SMILES strings stand for the structures. Converted amounts (≈) assume the structure as drawn. Where only a bound is given, the exact number is not on record here.

The test system of one data set is Influenza A0. Put plainly: microbe, parasite or virus in culture. The settings on record: Virus A = Influenza A0, MDCK, Vero and HEL cells. In kind it is cell-based.
As to `CNS(=O)(=O)c1cc(C(=O)O)ccc1Cl` [Compound 1, 4-chloro-3-methylamino-sulfonylbenzoic acid], the MIC was 30 µg/mL (≈ 120 µM).
The same measure, in the same setting: under `CCNS(=O)(=O)c1cc(C(=O)O)ccc1Cl` [Compound 2, 4-chloro-3-ethylamino-sulfonylbenzoic acid] stands 30 µg/mL (≈ 114 µM); under `CN(C)S(=O)(=O)c1cc(C(=O)O)ccc1Cl` [Compound 3, 4-chloro-3-dimethyl-aminosulfonylbenzoic acid], 30 µg/mL (≈ 114 µM); under `CC(C)NS(=O)(=O)c1cc(C(=O)O)ccc1Cl` [Compound 4, 4-chloro-3-isopropyl-aminoslfonylbenzoic acid], 30 µg/mL (≈ 108 µM).
The same measure, in the same setting: in the case of `O=C(O)c1ccc(Cl)c(S(=O)(=O)Nc2ccccc2)c1` [Compound 5, 3-anilinosulfonyl-4-chlorobenzoic acid] it was 30 µg/mL (≈ 96.2 µM).

The subject of a further data set is Influenza A1. Put plainly: microbe, parasite or virus in culture.
Conditions: not given
In kind it is cell-based.
`CNS(=O)(=O)c1cc(C(=O)O)ccc1Cl` [Compound 1, 4-chloro-3-methylamino-sulfonylbenzoic acid] displayed an MIC of 300 µg/mL (≈ 1200 µM).
On the same count and under the same terms, under `CCNS(=O)(=O)c1cc(C(=O)O)ccc1Cl` [Compound 2, 4-chloro-3-ethylamino-sulfonylbenzoic acid] stands 300 µg/mL (≈ 1140 µM).
Still for that read-out and setting: in the case of `CN(C)S(=O)(=O)c1cc(C(=O)O)ccc1Cl` [Compound 3, 4-chloro-3-dimethyl-aminosulfonylbenzoic acid] it was 300 µg/mL (≈ 1140 µM); in that of `CC(C)NS(=O)(=O)c1cc(C(=O)O)ccc1Cl` [Compound 4, 4-chloro-3-isopropyl-aminoslfonylbenzoic acid], 100 µg/mL (≈ 360 µM).
Same read-out and setting: in the case of `O=C(O)c1ccc(Cl)c(S(=O)(=O)Nc2ccccc2)c1` [Compound 5, 3-anilinosulfonyl-4-chlorobenzoic acid] it was 300 µg/mL (≈ 962 µM).

The next data set has as its system Influenza B. Kind of data set: microbe, parasite or virus in culture.
Conditions: not given
The data set is classed as cell-based.
With `CNS(=O)(=O)c1cc(C(=O)O)ccc1Cl` [Compound 1, 4-chloro-3-methylamino-sulfonylbenzoic acid], the MIC is 300 µg/mL (≈ 1200 µM).
In the case of `CCNS(=O)(=O)c1cc(C(=O)O)ccc1Cl` [Compound 2, 4-chloro-3-ethylamino-sulfonylbenzoic acid], the MIC is 300 µg/mL (≈ 1140 µM).
On the same count and under the same terms, in the case of `CN(C)S(=O)(=O)c1cc(C(=O)O)ccc1Cl` [Compound 3, 4-chloro-3-dimethyl-aminosulfonylbenzoic acid] it was 300 µg/mL (≈ 1140 µM); in that of `CC(C)NS(=O)(=O)c1cc(C(=O)O)ccc1Cl` [Compound 4, 4-chloro-3-isopropyl-aminoslfonylbenzoic acid], 300 µg/mL (≈ 1080 µM); in that of `O=C(O)c1ccc(Cl)c(S(=O)(=O)Nc2ccccc2)c1` [Compound 5, 3-anilinosulfonyl-4-chlorobenzoic acid], 300 µg/mL (≈ 962 µM).

A further data set concerns Parainfluenza Type 3. Put plainly: microbe, parasite or virus in culture. In kind it is cell-based. The note with it: Virus E = Parainfluenza Type 3.
In turn, `CNS(=O)(=O)c1cc(C(=O)O)ccc1Cl` [Compound 1, 4-chloro-3-methylamino-sulfonylbenzoic acid] returned an MIC of 300 µg/mL (≈ 1200 µM).
As for `CCNS(=O)(=O)c1cc(C(=O)O)ccc1Cl` [Compound 2, 4-chloro-3-ethylamino-sulfonylbenzoic acid], the MIC worked out at 300 µg/mL (≈ 1140 µM).
Still for that read-out and setting: in the case of `CN(C)S(=O)(=O)c1cc(C(=O)O)ccc1Cl` [Compound 3, 4-chloro-3-dimethyl-aminosulfonylbenzoic acid] it was 300 µg/mL (≈ 1140 µM); in that of `CC(C)NS(=O)(=O)c1cc(C(=O)O)ccc1Cl` [Compound 4, 4-chloro-3-isopropyl-aminoslfonylbenzoic acid], 300 µg/mL (≈ 1080 µM); in that of `O=C(O)c1ccc(Cl)c(S(=O)(=O)Nc2ccccc2)c1` [Compound 5, 3-anilinosulfonyl-4-chlorobenzoic acid], 300 µg/mL (≈ 962 µM).

The next data set has as its system ECHO. Kind of data set: microbe, parasite or virus in culture. The data set is classed as cell-based.
Conditions: not given
In turn, `CNS(=O)(=O)c1cc(C(=O)O)ccc1Cl` [Compound 1, 4-chloro-3-methylamino-sulfonylbenzoic acid] had an MIC of 300 µg/mL (≈ 1200 µM).
Same read-out and setting: under `CCNS(=O)(=O)c1cc(C(=O)O)ccc1Cl` [Compound 2, 4-chloro-3-ethylamino-sulfonylbenzoic acid] stands 300 µg/mL (≈ 1140 µM).
Still for that read-out and setting: under `CN(C)S(=O)(=O)c1cc(C(=O)O)ccc1Cl` [Compound 3, 4-chloro-3-dimethyl-aminosulfonylbenzoic acid] stands 300 µg/mL (≈ 1140 µM); under `CC(C)NS(=O)(=O)c1cc(C(=O)O)ccc1Cl` [Compound 4, 4-chloro-3-isopropyl-aminoslfonylbenzoic acid], 300 µg/mL (≈ 1080 µM).
`O=C(O)c1ccc(Cl)c(S(=O)(=O)Nc2ccccc2)c1` [Compound 5, 3-anilinosulfonyl-4-chlorobenzoic acid] yielded an MIC of 300 µg/mL (≈ 962 µM).

In another data set the test system is Coxsackie Type B5. Put plainly: microbe, parasite or virus in culture. In kind it is cell-based. The settings on record: Virus G = Coxsackie Type B5.
Take `CNS(=O)(=O)c1cc(C(=O)O)ccc1Cl` [Compound 1, 4-chloro-3-methylamino-sulfonylbenzoic acid]: the MIC was determined as 100 µg/mL (≈ 401 µM).
For `CCNS(=O)(=O)c1cc(C(=O)O)ccc1Cl` [Compound 2, 4-chloro-3-ethylamino-sulfonylbenzoic acid], the MIC is 300 µg/mL (≈ 1140 µM).
Still for that read-out and setting: under `CN(C)S(=O)(=O)c1cc(C(=O)O)ccc1Cl` [Compound 3, 4-chloro-3-dimethyl-aminosulfonylbenzoic acid] stands 300 µg/mL (≈ 1140 µM); under `CC(C)NS(=O)(=O)c1cc(C(=O)O)ccc1Cl` [Compound 4, 4-chloro-3-isopropyl-aminoslfonylbenzoic acid], 300 µg/mL (≈ 1080 µM); under `O=C(O)c1ccc(Cl)c(S(=O)(=O)Nc2ccccc2)c1` [Compound 5, 3-anilinosulfonyl-4-chlorobenzoic acid], 100 µg/mL (≈ 321 µM).

In another data set the test system is Rhino. Put plainly: microbe, parasite or virus in culture. In kind it is cell-based.
Conditions: not given
Compound `CNS(=O)(=O)c1cc(C(=O)O)ccc1Cl` [Compound 1, 4-chloro-3-methylamino-sulfonylbenzoic acid] yielded an MIC of 300 µg/mL (≈ 1200 µM).
On the same count and under the same terms, in the case of `CCNS(=O)(=O)c1cc(C(=O)O)ccc1Cl` [Compound 2, 4-chloro-3-ethylamino-sulfonylbenzoic acid] it was 300 µg/mL (≈ 1140 µM); in that of `CN(C)S(=O)(=O)c1cc(C(=O)O)ccc1Cl` [Compound 3, 4-chloro-3-dimethyl-aminosulfonylbenzoic acid], 300 µg/mL (≈ 1140 µM); in that of `CC(C)NS(=O)(=O)c1cc(C(=O)O)ccc1Cl` [Compound 4, 4-chloro-3-isopropyl-aminoslfonylbenzoic acid], 300 µg/mL (≈ 1080 µM).
Same read-out and setting: under `O=C(O)c1ccc(Cl)c(S(=O)(=O)Nc2ccccc2)c1` [Compound 5, 3-anilinosulfonyl-4-chlorobenzoic acid] stands 300 µg/mL (≈ 962 µM).

For the next data set, the system named is influenza A0 virus. Kind of data set: Protective action against the death of mice infected with influenza A0 virus. In kind it is in vivo, ICR female mice. The settings on record: intraperitoneal, 100 mg/kg, twice a day for 14 days, survivors at 15th day. The source says:
Experimental Example 2 Protective Action against the Death of Mice. Infected with Influenza A0 Virus,
After the influenza A0 virus was inoculated to groups each -consisting of ten ICR female mice (16 - 18 g) intranasally under light anesthesia with ether, compound of the invention was given orally or intraperitoneally as multiple doses of twice a day starting one hour after infection and continued for 14 days. The result of the treatment was shown as the increase in percentage of survivors at 15th day.
Take `CNS(=O)(=O)c1cc(C(=O)O)ccc1Cl` [Compound 1, 4-chloro-3-methylamino-sulfonylbenzoic acid]: the Survival rate amounted to 40%.
Still for that read-out and setting: in the case of `CCNS(=O)(=O)c1cc(C(=O)O)ccc1Cl` [Compound 2, 4-chloro-3-ethylamino-sulfonylbenzoic acid] it was 40%; in that of `CN(C)S(=O)(=O)c1cc(C(=O)O)ccc1Cl` [Compound 3, 4-chloro-3-dimethyl-aminosulfonylbenzoic acid], 40%.
On the same count and under the same terms, in the case of `CC(C)NS(=O)(=O)c1cc(C(=O)O)ccc1Cl` [Compound 4, 4-chloro-3-isopropyl-aminoslfonylbenzoic acid] it was 40%; in that of `O=C(O)c1ccc(Cl)c(S(=O)(=O)Nc2ccccc2)c1` [Compound 5, 3-anilinosulfonyl-4-chlorobenzoic acid], 40%.

The same data set, now with this note: oral, 300 mg/kg, twice a day for 14 days, survivors at 15th day.
`CNS(=O)(=O)c1cc(C(=O)O)ccc1Cl` [Compound 1, 4-chloro-3-methylamino-sulfonylbenzoic acid] gave a Survival rate of 50%.
`CCNS(=O)(=O)c1cc(C(=O)O)ccc1Cl` [Compound 2, 4-chloro-3-ethylamino-sulfonylbenzoic acid] had a Survival rate of 50%.
For `CN(C)S(=O)(=O)c1cc(C(=O)O)ccc1Cl` [Compound 3, 4-chloro-3-dimethyl-aminosulfonylbenzoic acid], the Survival rate is listed as 50%.
Still for that read-out and setting: under `CC(C)NS(=O)(=O)c1cc(C(=O)O)ccc1Cl` [Compound 4, 4-chloro-3-isopropyl-aminoslfonylbenzoic acid] stands 40%.
With `O=C(O)c1ccc(Cl)c(S(=O)(=O)Nc2ccccc2)c1` [Compound 5, 3-anilinosulfonyl-4-chlorobenzoic acid], the Survival rate amounted to 40%.

Test system in the next data set: not listed separately
Put plainly: Acute toxicity in mice. Further details: species or system ddy male mice. The settings on record: mouse, in vivo, ip; Intra-peritoneal administration, suspended in 5% Arabic gum solution, mortality observed for 7 days. On the procedure: Experimental Example 7: Acute Toxicity in Mice
Each compound of the invention was suspended in 5% Arabic gum solution and given orally (p.o.) or intraperitoneally (i.p.) to groups of ten ddy male mice weighed from 24 to 26 g at the dosage volume of 10 ml/kg. […] LD50 was determined according to the method of Wilcoxon and Litchfield.
The LD50 is the dose at which mortality reaches 50%. Compound `CNS(=O)(=O)c1cc(C(=O)O)ccc1Cl` [Compound 1, 4-chloro-3-methylamino-sulfonylbenzoic acid] had an LD50 at 168 h of more than 1000 mg/kg.
Still for that read-out and setting: under `CCNS(=O)(=O)c1cc(C(=O)O)ccc1Cl` [Compound 2, 4-chloro-3-ethylamino-sulfonylbenzoic acid] stands more than 1000 mg/kg; under `CN(C)S(=O)(=O)c1cc(C(=O)O)ccc1Cl` [Compound 3, 4-chloro-3-dimethyl-aminosulfonylbenzoic acid], more than 1000 mg/kg; under `CC(C)NS(=O)(=O)c1cc(C(=O)O)ccc1Cl` [Compound 4, 4-chloro-3-isopropyl-aminoslfonylbenzoic acid], more than 1000 mg/kg.
On the same count and under the same terms, in the case of `O=C(O)c1ccc(Cl)c(S(=O)(=O)Nc2ccccc2)c1` [Compound 5, 3-anilinosulfonyl-4-chlorobenzoic acid] it was 968 mg/kg.

The data set is the same for the next values; noted with them: mouse, in vivo; Oral administration, suspended in 5% Arabic gum solution, mortality observed for 7 days.
As for `CNS(=O)(=O)c1cc(C(=O)O)ccc1Cl` [Compound 1, 4-chloro-3-methylamino-sulfonylbenzoic acid], the LD50 at 168 h was more than 3000 mg/kg.
Regarding `CCNS(=O)(=O)c1cc(C(=O)O)ccc1Cl` [Compound 2, 4-chloro-3-ethylamino-sulfonylbenzoic acid], the LD50 at 168 h was more than 3000 mg/kg.
In turn, `CN(C)S(=O)(=O)c1cc(C(=O)O)ccc1Cl` [Compound 3, 4-chloro-3-dimethyl-aminosulfonylbenzoic acid] registered an LD50 at 168 h of more than 3000 mg/kg.
The compound `CC(C)NS(=O)(=O)c1cc(C(=O)O)ccc1Cl` [Compound 4, 4-chloro-3-isopropyl-aminoslfonylbenzoic acid] returned an LD50 at 168 h of more than 3000 mg/kg.
Same read-out and setting: in the case of `O=C(O)c1ccc(Cl)c(S(=O)(=O)Nc2ccccc2)c1` [Compound 5, 3-anilinosulfonyl-4-chlorobenzoic acid] it was more than 3000 mg/kg.

Test system in a further data set: not listed separately
Kind of data set: Physicochemical properties (qualitative solubility). The settings on record: qualitative solubility in solvents.
`CNS(=O)(=O)c1cc(C(=O)O)ccc1Cl` [Compound 1, 4-chloro-3-methylamino-sulfonylbenzoic acid]: the “Property (solubility)” value is listed as “white crystalline powder; insoluble in benzene, hexane; soluble in hot water, methanol”.
Consider `CCNS(=O)(=O)c1cc(C(=O)O)ccc1Cl` [Compound 2, 4-chloro-3-ethylamino-sulfonylbenzoic acid], for which the “Property (solubility)” value is “white crystalline powder; insoluble in benzene, hexane; soluble in hot water, methanol”.
Regarding `CN(C)S(=O)(=O)c1cc(C(=O)O)ccc1Cl` [Compound 3, 4-chloro-3-dimethyl-aminosulfonylbenzoic acid], the “Property (solubility)” value is “white crystalline powder; insoluble in benzene, hexane; soluble in hot water, methanol”.
Still for that read-out and setting: in the case of `CC(C)NS(=O)(=O)c1cc(C(=O)O)ccc1Cl` [Compound 4, 4-chloro-3-isopropyl-aminoslfonylbenzoic acid] it was “white crystalline powder; insoluble in benzene, hexane; soluble in hot water, methanol”; in that of `O=C(O)c1ccc(Cl)c(S(=O)(=O)Nc2ccccc2)c1` [Compound 5, 3-anilinosulfonyl-4-chlorobenzoic acid], “white crystalline powder; insoluble in benzene, hexane; soluble in hot water, methanol”.

Values taken from patent publication EP0132540A1 (priority 1981, dated 1983).
